This is an account of results in PMC9245008 (ACS chemical biology, 2022).

The subject of assay [1] is CIA mouse model. The settings on record: 50 mg/kg IP; cited from earlier work.
Assay [2] has as its target T1, TAK1 (Homo sapiens, UniProt O43318).
T1 sequence (O43318 1-303 limits assumed): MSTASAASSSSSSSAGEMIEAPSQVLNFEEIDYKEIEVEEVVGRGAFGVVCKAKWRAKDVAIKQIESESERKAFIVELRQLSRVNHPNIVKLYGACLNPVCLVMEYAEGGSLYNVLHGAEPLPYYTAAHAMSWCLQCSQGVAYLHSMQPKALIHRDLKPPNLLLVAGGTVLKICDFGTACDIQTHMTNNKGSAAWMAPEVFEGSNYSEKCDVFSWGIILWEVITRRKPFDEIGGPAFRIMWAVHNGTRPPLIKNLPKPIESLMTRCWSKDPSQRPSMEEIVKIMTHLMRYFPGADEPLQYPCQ
Kind of assay: Potency of takinib analogues against TAK1. In kind it is biochemical.

Assay [3] concerns the target T2, IRAK4 (Homo sapiens, UniProt Q9NWZ3).
T2 sequence (Q9NWZ3 1-460): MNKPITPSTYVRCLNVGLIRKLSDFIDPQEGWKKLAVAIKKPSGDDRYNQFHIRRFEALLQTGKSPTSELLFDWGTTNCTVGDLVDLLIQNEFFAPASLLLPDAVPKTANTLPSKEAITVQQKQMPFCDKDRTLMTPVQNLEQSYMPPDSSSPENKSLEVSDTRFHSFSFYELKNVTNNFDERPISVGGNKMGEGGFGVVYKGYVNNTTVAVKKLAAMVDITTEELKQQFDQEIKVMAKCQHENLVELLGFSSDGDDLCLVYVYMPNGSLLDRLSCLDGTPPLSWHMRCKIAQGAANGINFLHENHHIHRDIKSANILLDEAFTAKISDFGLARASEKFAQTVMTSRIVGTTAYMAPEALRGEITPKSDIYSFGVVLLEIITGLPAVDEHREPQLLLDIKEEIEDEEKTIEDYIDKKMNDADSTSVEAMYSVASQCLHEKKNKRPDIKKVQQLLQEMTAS
To be noted: cited from earlier work.

For assay [4], the target named is T2, IRAK4. Kind of assay: Potency of takinib analogues against IRAK4. Type of assay: biochemical. The settings on record: IRAK4 IC50 over TAK1 IC50.

Molecules are shown by their SMILES.

As a reminder, the IC50 is the midpoint of a concentration-inhibition curve.

In the case of `CCCn1c(=NC(=O)c2cccc(C(N)=O)c2)[nH]c2ccccc21` [Takinib, N-(1-propyl-1,3-dihydro-2H-benzo[d]imidazol-2-ylidene)isophthalamide], the “reduction of mean clinical score” value in assay [1] was ~ 32%. The IC50 is 9 nM in assay [2] and about 120 nM in assay [3] (read-out: IRAK4 IC50, two independent kinome wide screens). In addition, the “IRAK4 less potently inhibited than TAK1” value in assay [3] is reported as 13 fold. Further, the Ratio in assay [4] worked out at 13.
